In patent publication US20240239813A1, “KRAS INHIBITORS AND PHARMACEUTICAL USES THEREOF” (RISEN (SUZHOU) PHARMA TECH CO., LTD., priority 2022, published 2024):
pIC50: −log10 of the molar value.

Legend:
GP2D = experiment: Cell proliferation assay (CellTiterGlo), GP2D; format: cell-based; settings: Homo sapiens, 72 hours
Protocol: (§1) A cell proliferation assay was used to evaluate inhibition by exemplary compounds. Proliferation assays used human tissue derived cancer cell lines, for example, AsPC-1 (Cobioer, CBP60546), GP2D (Cobioer, CBP60683), NCI-H358 (Cobioer, CBP60544), NCI-H727 (Cobioer, CBP60182), MKN-1 (Cobioer, CBP60486), HCT116 (ATCC, CCL-247), and HT-29 (Cobioer, CBP60011). Signal reflecting cell proliferation was detected with the CellTiterGlo kit (Promega, G7573).
(§2) Cells were cultured in the growth phase and 3×10^3 cells per well were plated in a 96-well plate (Greiner, 655090). Cells were incubated 24 hours at 37° C. and 5% carbon dioxide in a humidity chamber. Serially diluted exemplary compounds were added to the plate which was then incubated for another 72 hours. Plates were brought to room temperature and an equal volume of CellTiterGlo reagent was added. After 10 minutes incubation at room temperature to stabilize the signal, the luminescent signal was measured on the VICTOR Nivo multimode plate reader according to the manufacturer's instructions. The signal was converted to percent inhibition using the following formula: […]
(§3) (where the “Maximum Signal” are wells containing DMSO without inhibitor; the “Minimum Signal” are signal of wells recorded at Day 0 prior to commencement of the experiment; the “Test compound signal” are wells containing inhibitor at established concentrations).
(§4) IC50 was determined by fitting percent inhibition at each inhibitor concentration to the four-parameter nonlinear logistic equation using GraphPad Prism. IC50 (nM) values of selected compounds are depicted in Table 4. “-”: means without measuring; and “ND” means not detected.

NCI-H358 = experiment: Cell proliferation assay (CellTiterGlo), NCI-H358; format: cell-based; settings: Homo sapiens, NCI-H358, 72 hours
Protocol: as §1, §2, §3, §4

[1] = target: His-tagged Human KRAS^G12D (Homo sapiens (Human), UniProt P01116, G12D); experiment: HTRF KRAS G12D GTP binding assay; settings: displacement of GTP-Red tracer
Chain of His-tagged Human KRAS^G12D (P01116-2 other isoform, or with tags, fused parts or gaps G12D): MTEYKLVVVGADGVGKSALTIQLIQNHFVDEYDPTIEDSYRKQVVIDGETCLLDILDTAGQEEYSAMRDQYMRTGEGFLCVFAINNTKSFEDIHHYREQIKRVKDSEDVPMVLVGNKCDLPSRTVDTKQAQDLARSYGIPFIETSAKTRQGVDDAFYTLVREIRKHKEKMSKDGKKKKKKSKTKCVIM
Protocol: KRAS^G12D was used in this assay.
The ability of a test compound to bind to KRAS^G12D was measured by using an HTRF KRAS^G12D GTP Binding Kit (Cisbio, 63ADK000CB27PEG). […] 5 μL of compound solution was added to each well after serial dilution, followed by addition of 5 μL of GDP (50 nM) solution. After 30 minutes incubation at room temperature, 1×6His Eu cryptate antibody solution and GTP-Red tracer were added to the plate, then incubated for another 30 minutes. The HTRF signal was measured with a VICTOR Nivo multimode plate reader according to the manufacturer's instructions. The percent inhibition was calculated using the following formula: […]
(where the “Maximum Signal” are wells containing DMSO without inhibitor; the “Minimum Signal” are wells containing reference inhibitory component (GDP); the “Test compound signal” are wells containing test compound (inhibitor) at established concentrations).
IC50 was determined by fitting percent inhibition at each inhibitor concentration to the four-parameter nonlinear logistic equation using GraphPad Prism.

[2] = Microsomal stability assay, human liver microsomes; format: in vitro ADME; settings: pooled human liver microsomes, 0.5 mg/mL protein
Protocol: (§5) Test results from this assay were used to determine the metabolic liabilities of test compounds and allow focus on the improvement of drug candidates through structure-activity relationships. Pooled mouse/rat/human liver microsomes were used for this assay
(§6) In vitro mouse (CD-1, BioIVT)/rat (SD, RILD)/human (Corning) liver microsomal suspensions at 0.5 mg/mL protein and 1.3 mM NADPH, 3.3 mM MgCl2 were pre incubated at 37° C. for 3 mins prior to addition of 0.1 mM test compound solution to give a final incubation concentration of 1 μM. Samples were incubated for 0, 15, 30, 60 minutes at 37° C. on a shaker (the positive control substance was cultured for 0 or 60 minutes). At the end of each incubation time both incubated and control samples were quenched with ice-cold stop solution containing internal standard. All samples were mixed by a plate shaker at 800 rpm for 5 minutes, then centrifuged at 4100 rpm for 15 minutes at 4° C. to precipitate protein. Supernatant was transferred to another 96-well plate, dilution solution was added to each supernatant well, and then each bioanalysis plate was sealed. The samples were mixed by plate shaker at 800 rpm for 5 minutes and then centrifuged at 4° C., 4100 rpm for 5 minutes. All samples were stored at 4° C. before LC-MS/MS analysis.
(§7) The peak area ratio was converted to the remaining percentages (% Remaining) using the following formula: […]
(§8) where % Remaining is the compound ratio (compound peak area/internal standard peak area) as a percentage of the 0 minute time point.
(§9) The ln remaining percent of test articles were plotted against time and the gradient of the line determined; the gradient was converted to elimination rate constant by using the following formula:
(§10) Elimination rate constant(ke)=−gradient
(§11) Half time (T1/2) was determined using following formula: […]
(§12) Hepatic intrinsic clearance (CLint(liver)) was determined by using the following formulas: […]
(§13) The Intrinsic clearance of selected compounds is depicted in Table 6.

[3] = Microsomal stability assay, rat liver microsomes; format: in vitro ADME; settings: SD, pooled rat liver microsomes, 0.5 mg/mL protein
Protocol: as §5, §6, §7, §8, §9, §10, §11, §12, §13

[4] = Microsomal stability assay, mouse liver microsomes; format: in vitro ADME; settings: CD-1, pooled mouse liver microsomes, 0.5 mg/mL protein
Protocol: as §5, §6, §7, §8, §9, §10, §11, §12, §13

Compound | pIC50 [1] | further results
CCc1c(F)ccc2cc(O)cc(-c3ncc4c(N5CCC[C@H]5C(C)(C)O)nc(OC[C@@]56CCCN5C[C@H](F)C6)nc4c3F)c12 [Compound 45] | < 6.00 | –
CCc1c(F)ccc2cc(O)cc(-c3ncc4c(N5C[C@H]6C[C@@H]5C(=O)N6)nc(OC[C@@]56CCCN5C[C@H](F)C6)nc4c3F)c12 [Compound 46] | < 6.00 | –
CCc1c(F)ccc2cc(O)cc(-c3ncc4c(OC[C@@]56CCCN5C[C@H](F)C6)nc(OC[C@@]56CCCN5C[C@H](F)C6)nc4c3F)c12 [Compound 47] | < 6.00 | –
CCc1c(F)ccc2cc(O)cc(-c3ncc4c(N5CC[C@H](CO)C5)nc(OC[C@@]56CCCN5C[C@H](F)C6)nc4c3F)c12 [Compound 48] | < 6.00 | –
CCc1c(F)ccc2cc(O)cc(-c3ncc4c(N5CCC(C(C)=O)CC5)nc(OC[C@@]56CCCN5C[C@H](F)C6)nc4c3F)c12 [Compound 49] | < 6.00 | –
CCc1c(F)ccc2cc(O)cc(-c3ncc4c(N5CCCC6(COC6)C5)nc(OC[C@@]56CCCN5C[C@H](F)C6)nc4c3F)c12 [Compound 50] | 7.15 | –
CCc1c(F)ccc2cc(O)cc(-c3ncc4c(N5CCC6CC6(O)C5)nc(OC[C@@]56CCCN5C[C@H](F)C6)nc4c3F)c12 (stereo partly drawn) [Compound 52] | < 6.00 | –
CCc1c(F)ccc2cc(O)cc(-c3ncc4c(N5CCC6(CC5)COC6)nc(OC[C@@]56CCCN5C[C@H](F)C6)nc4c3F)c12 [Compound 53] | < 6.00 | –
CCc1c(F)ccc2cc(O)cc(-c3ncc4c(N5CC6(COC6)C5)nc(OC[C@@]56CCCN5C[C@H](F)C6)nc4c3F)c12 [Compound 54] | < 6.00 | –
CCc1c(F)ccc2cc(O)cc(-c3ncc4c(N5C[C@H](N)C[C@H]5CO)nc(OC[C@@]56CCCN5C[C@H](F)C6)nc4c3F)c12 [Compound 55] | < 6.00 | –
CCc1c(F)ccc2cc(O)cc(-c3ncc4c(N5CCC(C)(CO)C5)nc(OC[C@@]56CCCN5C[C@H](F)C6)nc4c3F)c12 (stereo partly drawn) [Compound 56] | < 6.00 | –
CCc1c(F)ccc2cc(O)cc(-c3ncc4c(N5[C@H](CO)C[C@H]6C[C@H]65)nc(OC[C@@]56CCCN5C[C@H](F)C6)nc4c3F)c12 [Compound 57] | 6.29 | –
CCc1c(F)ccc2cc(O)cc(-c3ncc4c(N5CCC6(CCCC6=O)CC5)nc(OC[C@@]56CCCN5C[C@H](F)C6)nc4c3F)c12 [Compound 58] | < 6.00 | –
CCc1c(F)ccc2cc(O)cc(-c3ncc4c(N5CCC6(CCC6=O)CC5)nc(OC[C@@]56CCCN5C[C@H](F)C6)nc4c3F)c12 [Compound 59] | < 6.00 | –
CCc1c(F)ccc2cc(O)cc(-c3ncc4c(N5CCC6(CCO6)CC5)nc(OC[C@@]56CCCN5C[C@H](F)C6)nc4c3F)c12 [Compound 60] | < 6.00 | –
CCc1c(F)ccc2cc(O)cc(-c3ncc4c(N5CCC6(COC6)C5)nc(OC[C@@]56CCCN5C[C@H](F)C6)nc4c3F)c12 [Compound 61] | < 6.00 | –
CCc1c(F)ccc2cc(O)cc(-c3ncc4c(N5CCC6(CCO6)C5)nc(OC[C@@]56CCCN5C[C@H](F)C6)nc4c3F)c12 (stereo partly drawn) [Compound 62] | < 6.00 | –
Nc1cc(Cl)c(C(F)(F)F)c(-c2ncc3c(N4CCCC5(COC5)C4)nc(OC[C@@]45CCCN4C[C@H](F)C5)nc3c2F)c1 [Compound 63] | < 6.00 | –
CCc1c(F)ccc2cc(O)cc(-c3ncc4c(N5CCCC6(CCOC6)C5)nc(OC[C@@]56CCCN5C[C@H](F)C6)nc4c3F)c12 (stereo partly drawn) [Compound 64] | < 6.00 | –
CCc1c(F)ccc2cc(O)cc(-c3ncc4c(N5CCC[C@@]6(CCO6)C5)nc(OC[C@@]56CCCN5C[C@H](F)C6)nc4c3F)c12 [Compound 67] | – | CLint scaled at 1 μM [2]: 83.5 mL/min/kg; CLint scaled at 1 μM [3]: 288 mL/min/kg; CLint scaled at 1 μM [4]: 1280 mL/min/kg
CCc1c(F)ccc2cc(O)cc(-c3ccc4c(N5CCCC6(CCO6)C5)nc(OC[C@@]56CCCN5C[C@H](F)C6)nc4c3F)c12 (stereo partly drawn) [Compound 70] | 7.17 | –
CCc1c(F)ccc2cc(O)cc(-c3c(Cl)cc4c(N5CCCC6(CCO6)C5)nc(OC[C@@]56CCCN5C[C@H](F)C6)nc4c3F)c12 (stereo partly drawn) [Compound 92] | 6.38 | –
CCc1c(F)ccc2cc(O)cc(-c3c(F)cc4c(N5CCCC6(CCO6)C5)nc(OC[C@@]56CCCN5C[C@H](F)C6)nc4c3F)c12 (stereo partly drawn) [Compound 96] | 6.89 | –
CCc1c(F)ccc2cc(O)cc(-c3ncc4c(N5CC6(CCC6O)C5)nc(OC[C@@]56CCCN5C[C@H](F)C6)nc4c3F)c12 (stereo partly drawn) [Compound 110] | < 6.00 | –
CCc1c(F)ccc2cc(O)cc(-c3ncc4c(N5CC6(CCC6=O)C5)nc(OC[C@@]56CCCN5C[C@H](F)C6)nc4c3F)c12 [Compound 112] | < 6.00 | –
CCc1c(F)ccc2cc(O)cc(-c3ncc4c(N5CCCC6(C5)OCCO6)nc(OC[C@@]56CCCN5C[C@H](F)C6)nc4c3F)c12 [Compound 117] | 6.43 | –

The next lines start with results.

pIC50 [1] | Compound | further results
8.35 | CCc1c(F)ccc2cc(O)cc(-c3ncc4c(N5CCC[C@]6(CCO6)C5)nc(OCC5(CN6CCC7(CC6)COC7)CC5)nc4c3F)c12 [Compound 18a] | pIC50 (GP2D): 8.72; pIC50 (NCI-H358): 7.64
7.79 | CCc1c(F)ccc2cc(O)cc(-c3ncc4c(N5CCC[C@]6(CCO6)C5)nc(OCC5(CN6CCC7(CC6)CC(N6CCC(c8ccc9cnn(C)c9c8)CC6)C7)CC5)nc4c3F)c12 [Compound 19a] | pIC50 (GP2D): 7.85; pIC50 (NCI-H358): 7.82
8.33 | CCc1c(F)ccc2cc(O)cc(-c3ncc4c(N5CCC[C@]6(CCO6)C5)nc(OCC5(CN6CCC7(CC6)CC(N6CCOCC6)C7)CC5)nc4c3F)c12 [Compound 20a] | pIC50 (GP2D): 8.33; pIC50 (NCI-H358): 6.90
8.17 | CCc1c(F)ccc2cc(O)cc(-c3ncc4c(N5CCC[C@]6(CCO6)C5)nc(OCC5(CN6CCC7(CC6)CC(N6CCCCC6)C7)CC5)nc4c3F)c12 [Compound 21a] | pIC50 (GP2D): 7.79; pIC50 (NCI-H358): 7.04
7.99 | CCc1c(F)ccc2cc(O)cc(-c3ncc4c(N5CCC[C@]6(CCO6)C5)nc(OCC5(CN6CCC(C(=O)O)CC6)CC5)nc4c3F)c12 [Compound 33a] | pIC50 (GP2D): 6.38; pIC50 (NCI-H358): < 5.00
< 6.00 | CCc1c(F)ccc2cc(O)cc(-c3ncc4c(N5CCCCC(OC)C5)nc(OCC5(CN(C)C)CC5)nc4c3F)c12 (stereo not drawn) [Compound 45a] | –
6.17 | CCc1c(F)ccc2cc(O)cc(-c3ncc4c(N5CCCCC(O)C5)nc(OCC5(CN(C)C)CC5)nc4c3F)c12 (stereo not drawn) [Compound 46a] | –
< 6.00 | N#Cc1c(N)sc2c(F)ccc(-c3c(Cl)cc4c(N5CCC[C@]6(CCO6)C5)nc(OCC5(CN6CCCCC6)CC5)nc4c3F)c12 [Compound 48a] | –
8.39 | CCc1c(F)ccc2cc(O)cc(-c3ncc4c(N5CCC[C@]6(CCO6)C5)nc(OCC5(CN(C)CC6COC6)CC5)nc4c3F)c12 [Compound 49a] | –
8.17 | CCc1c(F)ccc2cc(O)cc(-c3ncc4c(N5CCC[C@]6(CCO6)C5)nc(OCC5(CN(C)CC6CCOC6)CC5)nc4c3F)c12 (stereo partly drawn) [Compound 50a] | –
